Source: US9211310B2, “Use of a Chinese medicine composition in preparing medicaments for treating secondary prevention of myocardial infarction” (TASLY PHARMACEUTICAL GROUP CO., LTD, priority 2010, dated 2015)

System: patients after acute myocardial infarction
Assay: Life quality, Seattle Angina Questionnaire (SAQ), same clinical trial
Format: in vivo, human
Description: 3508 patients who were in accordance with the diagnostic standards of AMI for 28 days to 2 years and differentiated as Qi deficiency and blood stagnation syndrome by TCM were studied. 0.5 g Chinese medicine composition prepared by the method of EXAMPLE 1 (Coded as QSYQ) was administrated half an hour after meal, 3 times per day.
There were 19 questions in the Seattle angina questionnaire (SAQ), including 5 parts: physical limitation (PL), anginal stability (AS), anginal frequency (AF), treatment satisfaction (TS) and disease perception (DP). After being given necessary explanation by doctors, the questions were answered independently by patients.
They included the overall survival time, angina pectoris score, TCM symptom score and life quality score, where angina pectoris score, TCM symptom score and life quality score were evaluated at randomization, in 1st, 3rd, 6th, 9th, 12th month after treatment and 18th month after follow-up.
All evaluation results of SAQ were described during the period of observation, and Wilcoxon rank sum test was used for inter-group comparison.
The evaluation results in the SAQ were depicted in different observations, and inter-group comparison was tested by Wilcoxon Rank-sum test.

CC(=O)Oc1ccccc1C(=O)O [Control group, aspirine]
SAQ Question 1-5: Slightly limited, percent of patients (12 months after treatment, PP): (29.70%)
SAQ Question 1-9: Mildly limited, % of cases (12 months after treatment, PP): (20.07%)
SAQ Question 1-9: Mildly limited, cases (12 months after treatment, PP): 278
SAQ Question 1-9: Moderately limited, % of cases (12 months after treatment, PP): (20.87%)
SAQ Question 1-9: Moderately limited, cases (12 months after treatment, PP): 289
SAQ Question 1-9: Not limited, % of cases (12 months after treatment, PP): (5.05%)
SAQ Question 1-9: Not limited, cases (12 months after treatment, PP): 70
SAQ Question 1-9: Other reasons, % of cases (12 months after treatment, PP): (6.28%)
SAQ Question 1-9: Other reasons, cases (12 months after treatment, PP): 87
SAQ Question 1-9: Severely limited, % of cases (12 months after treatment, PP): (29.75%)
SAQ Question 1-9: Severely limited, cases (12 months after treatment, PP): 412
SAQ Question 1-9: Slightly limited, % of cases (12 months after treatment, PP): (17.98%)
SAQ Question 1-9: Slightly limited, cases (12 months after treatment, PP): 249
SAQ 2nd question: Clearly increased, % of cases (Baseline, FAS): (3.17%)
SAQ 2nd question: Clearly increased, cases (Baseline, FAS): 55
SAQ 2nd question: Clearly reduced, % of cases (Baseline, FAS): (12.46%)
SAQ 2nd question: Clearly reduced, cases (Baseline, FAS): 216
SAQ 2nd question: Same, % of cases (Baseline, FAS): (62.09%)
SAQ 2nd question: Same, cases (Baseline, FAS): 1076
SAQ 2nd question: Slightly increased, % of cases (Baseline, FAS): (6.92%)
SAQ 2nd question: Slightly increased, cases (Baseline, FAS): 120
SAQ 2nd question: Slightly reduced, % of cases (Baseline, FAS): (15.35%)
SAQ 2nd question: Slightly reduced, cases (Baseline, FAS): 266
SAQ 3rd question: 1-2 times per week, % of cases (Baseline, FAS): (15.35%)
SAQ 3rd question: 1-2 times per week, cases (Baseline, FAS): 266
SAQ 3rd question: 1-3 times per day, % of cases (Baseline, FAS): (6.92%)
SAQ 3rd question: 1-3 times per day, cases (Baseline, FAS): 120
SAQ 3rd question: <1 time per week, % of cases (Baseline, FAS): (12.46%)
SAQ 3rd question: <1 time per week, cases (Baseline, FAS): 216
SAQ 3rd question: No onset, % of cases (Baseline, FAS): (0.00%)
SAQ 3rd question: No onset, cases (Baseline, FAS): 0
SAQ 3rd question: ≧3 times per week, % of cases (Baseline, FAS): (62.09%)
SAQ 3rd question: ≧3 times per week, cases (Baseline, FAS): 1076
SAQ 3rd question: ≧4 times per day, % of cases (Baseline, FAS): (3.17%)
SAQ 3rd question: ≧4 times per day, cases (Baseline, FAS): 55
SAQ Question 1-3: Mildly limited, number of patients (Baseline, FAS): 149
SAQ Question 1-3: Mildly limited, percent of patients (Baseline, FAS): (8.57%)
SAQ Question 1-3: Moderately limited, number of patients (Baseline, FAS): 53
SAQ Question 1-3: Moderately limited, percent of patients (Baseline, FAS): (3.05%)
SAQ Question 1-3: Not limited, number of patients (Baseline, FAS): 1170
SAQ Question 1-3: Not limited, percent of patients (Baseline, FAS): (67.32%)
SAQ Question 1-3: Other reasons, number of patients (Baseline, FAS): 11
SAQ Question 1-3: Other reasons, percent of patients (Baseline, FAS): (0.63%)
SAQ Question 1-3: Severely limited, number of patients (Baseline, FAS): 15
SAQ Question 1-3: Severely limited, percent of patients (Baseline, FAS): (0.86%)
SAQ Question 1-3: Slightly limited, number of patients (Baseline, FAS): 340
SAQ Question 1-3: Slightly limited, percent of patients (Baseline, FAS): (19.56%)
SAQ Question 1-4: Mildly limited, number of patients (Baseline, FAS): 402
SAQ Question 1-4: Mildly limited, percent of patients (Baseline, FAS): (23.21%)
SAQ Question 1-4: Moderately limited, number of patients (Baseline, FAS): 208
SAQ Question 1-4: Moderately limited, percent of patients (Baseline, FAS): (12.01%)
SAQ Question 1-4: Not limited, number of patients (Baseline, FAS): 495
SAQ Question 1-4: Not limited, percent of patients (Baseline, FAS): (28.58%)
SAQ Question 1-4: Other reasons, number of patients (Baseline, FAS): 14
SAQ Question 1-4: Other reasons, percent of patients (Baseline, FAS): (0.81%)
SAQ Question 1-4: Severely limited, number of patients (Baseline, FAS): 59
SAQ Question 1-4: Severely limited, percent of patients (Baseline, FAS): (3.41%)
SAQ Question 1-4: Slightly limited, number of patients (Baseline, FAS): 554
SAQ Question 1-4: Slightly limited, percent of patients (Baseline, FAS): (31.99%)
SAQ Question 1-5: Mildly limited, number of patients (Baseline, FAS): 357
SAQ Question 1-5: Mildly limited, percent of patients (Baseline, FAS): (20.58%)
SAQ Question 1-5: Moderately limited, number of patients (Baseline, FAS): 238
SAQ Question 1-5: Moderately limited, percent of patients (Baseline, FAS): (13.72%)
SAQ Question 1-5: Not limited, number of patients (Baseline, FAS): 567
SAQ Question 1-5: Not limited, percent of patients (Baseline, FAS): (32.68%)
SAQ Question 1-5: Other reasons, number of patients (Baseline, FAS): 13
SAQ Question 1-5: Other reasons, percent of patients (Baseline, FAS): (0.75%)
SAQ Question 1-5: Severely limited, number of patients (Baseline, FAS): 53
SAQ Question 1-5: Severely limited, percent of patients (Baseline, FAS): (3.05%)
SAQ Question 1-5: Slightly limited, number of patients (Baseline, FAS): 507
SAQ Question 1-5: Slightly limited, percent of patients (Baseline, FAS): (29.22%)
SAQ Question 1-9: Mildly limited, % of cases (Baseline, FAS): (14.70%)
SAQ Question 1-9: Mildly limited, cases (Baseline, FAS): 249
SAQ Question 1-9: Moderately limited, % of cases (Baseline, FAS): (21.19%)
SAQ Question 1-9: Moderately limited, cases (Baseline, FAS): 359
SAQ Question 1-9: Not limited, % of cases (Baseline, FAS): (2.36%)
SAQ Question 1-9: Not limited, cases (Baseline, FAS): 40
